Test: Dielectric measurement (e′, e″, Q value) by Slotted Line Method at 27 MHz
Assay type: physicochemical
Conditions: raw material
Text: The property of permittivity is the measure of the resistance to forming an electric field. For purposes of comparing materials in air, it is often convenient to describe the permittivity of material in air where the permittivity is more specifically called “relative permittivity” or ? r. This is a complex number represented by the following equation: ? r=e'-je'' where e' (the real portion of the complex number) is the dielectric constant (energy storage) and e'' (the imaginary portion of the complex number) is the dielectric loss or dissipation factor (energy dissipated as heat). The ratio of dielectric loss (e'') over the dielectric constant (e') is called the loss tangent (tan δ) or power factor. […] The Q value is affected by physical and chemical properties such as density (porosity/particle size), moisture (conductivity), temperature, and molecular polarizability. The measurements obtained by this method can eliminate the need to measure and evaluate these properties independently. […] The Q values were measured using a HP […] Slotted Line as sample holder (carriage removed) connected to Agilent […] to ports A and B (transmission mode). […] This process is referred to as the “Slotted Line Method.” Unless otherwise stated, the Slotted line method was used for the calculation of e', e'', and Q value herein with the frequency range set to 26-28 MHz (31 points resolution) and values of e' and e'' were recorded from the 27 MHz data point.

Loss Tangent: 0.0022
e′: 1.6214
e″: 0.0035
SMILES: OC[C@@H](O)[C@@H](O[C@H]1O[C@H](CO)[C@@H](O)[C@H](O)[C@H]1O)[C@H](O)[C@@H](O)CO [Maltitol (SweetPearl DC300), Maltitol]
